Columns and labels:
[1] = target: T1, Cdk5 and p25 (Homo sapiens, UniProt Q00535); experiment: Cdk5 kinase inhibitory activity, SPA method with biotinylated histone and 33P-ATP; format: biochemical; conditions: recombinant human Cdk5/p25 1:1, SPA method
T1 construct: Complete length of the human Cdk5 gene was amplified from total RNA; made in house; host or cells: Sf9 insect cells (baculovirus)
Experimental: The total RNA was obtained by adding 1 ml of ISOGEN reagent (Nippon Gene) to 1×10^6 cells, mixing the resulting lysate with ⅕ volume of chloroform, centrifuging the mixture at 15,000 rpm for 10 minutes, mixing the resulting supernatant with ½ volume of 2-propanol and further centrifuging the mixture at 15,000 rpm for 20 minutes. The thus obtained RNA was dissolved in water and, after measurement of its concentration, subjected to PCR reaction (Titans one tube RT-PCR kit (Boehringer Mannheim)). […] Each of the genes was introduced into a Bacmid preparation vector pFASTBac-Hta (Gibco BRL) which had been designed such that His-tag is added to N-terminus, making use of the HindIII and BamHI sites designed in the primers. Each of the genes introduced into pFASTBac was introduced into DH10Bac to carry out recombination in E. coli, thereby obtaining respective recombinant Bacmids. The thus obtained Bacmid was introduced into Sf9 cells using cellfectin reagent (Gibco BRL) to obtain baculovirus. […] Purification of the recombinant proteins was carried out making use of the 6× His tag added to the N-terminus.
After though washing with the buffer A, this was washed with a buffer B (20 mM Tris-HCl, 1 M KCl, 10 mM 2-ME, 10% glycerol). Finally, fractions eluted with a buffer C (20 mM Tris-HCl, 100 mM KCl, 100 mM imidazole, 10 mM 2-ME, 10% glycerol) were recovered, dialyzed against a sample solution (50 mM HEPES-KOH, 10 mM MgCl2, 2.5 mM EGTA, 0.1 mM PMSF) and used as a purified preparation.
A 1:1 mixture of the purified Cdk5 protein and purified p25 obtained above was used as the enzyme source at the time of kinase activity measurement. Histone HI (Sigma) was biotinylated and used as the substrate. Biotinylated histone was prepared by allowing histone to react with 10 equivalents of biotin (Ez-link Sulfo-NHS-LC-Biotin, Pierce) as molar ratio in the presence of 50 mM sodium bicarbonate at room temperature for 6 hours. Free biotin was removed by carrying out dialysis using TBS, and the resulting solution was used as the stock solution. Measurement of kinase activity was carried out in accordance with the SPA method (Amersham). […] This was allowed to stand at room temperature for 15 minutes and centrifuged (1,700 rpm, 2 min), and then amount of the isotope incorporated in the substrate was measured by Topcount […].

[2] = tested on: APP(Thr668) phosphorylation; experiment: APP(Thr668) phosphorylation by western blotting in APP695 adenovirus-infected hippocampus primary culture nerve cells; format: cell-based, rat; conditions: for APP phosphorylation suppressing action / concentration at which APP phosphorylation suppressing action was found: rat hippocampus primary culture nerve cells, human APP695 adenovirus, 1 day of treatment; for expressed amount of total APP detected with anti-APP antibody 22C11: same cells and treatment, Alsterpaullone 10 μM, Roscovitine 50 μM
Experimental: The APP gene-containing recombinant adenovirus vector was converted into linear strand by PacI treatment and introduced into HEK293 cells by the Lipofectamine method (LIFE TECHNOLOGIES), and 3 to 5 days thereafter when cells were pealed off from the plate, all of the cells were recovered. The recombinant adenovirus was obtained from the supernatant by repeating freezing-thawing step of the cells. The thus obtained recombinant adenovirus was prepared in a large amount by repeating infection of HEK293 cells and then concentrated and purified by the CsCl method and used in the test.
The thus obtained PVDF membrane was soaked in Block Ace (Daiichi Pure Chemicals) at 4° C. overnight to carry out blocking. […] The anti-serum obtained by the immunization was used by subjecting to adsorption treatment using an immunogen peptide before introduction of phosphate group and then purifying by affinity chromatography using the phosphate group-introduced antigen peptide. Also, an anti-APP monoclonal antibody 22C11 (Roche Molecular Biochemicals) was used in the determination of total APP amount (combined APP amount of phosphorylated state of APP and non-phosphorylated state of APP). […] After completion of the reaction, washing with PBS-T at room temperature for 10 minutes was repeated four times and then this was subjected to the reaction with a secondary antibody. As the secondary antibody, 20,000 times diluted HRP-labeled anti-rabbit and anti-mouse IgG antibodies (Amersham Pharmacia Biotech) were used.

[3] = tested on: Aβ1-40 production; experiment: Aβ1-40 production, sandwich ELISA of culture supernatant of APP695 adenovirus-infected hippocampus primary culture nerve cells
Experimental: The fetus was sterilized with ethanol for disinfection in a clean bench, the total brain was extracted and recovered in a dish containing a serum-free medium (SUMILON, Sumitomo Bakelite), and the hippocampus was extracted using a precision pincette under a stereoscopic microscope. The hippocampus was transferred into a 50 ml tube, tissues were precipitated by standing to discard the supernatant by aspirating and a cell dispersing solution (PBS containing 1% papain, 150 U/ml DNase I, 0.02% L-cysteine, 0.02% BSA and 0.5% glucose) was added thereto, and the mixture was incubated at 37° C. for 15 minutes and then centrifuged (1,000 rpm, 4° C., 5 min). The supernatant was removed by aspiration, 10 ml of the serum-free medium was added to the sediment, pipette treatment was carried out several times, and then cell masses were removed using a filter to obtain a cell suspension. The number of cells was counted using trypan blue, and 1.5×10^5 of the cells were inoculated into a poly-L-lysine-coated 48 well culture plate. In order to effect sufficient differentiation, they were cultured at 37° C. for 10 days in a CO2 incubator and then used in the test.
Infection with adenovirus was carried out on the 10th day of the culturing. A virus suspension of 1.5×10^8 particles was suitably diluted and added to a medium to an MOI (multiplicity of infection) value of 1,000 based on 1.5×10^5 cells. A sample was recovered on the 4th day of the infection.
Culture supernatants recovered 24 hours after the addition of compounds to be tested were used as the samples for Aβ production measurement. Amount of Aβ in each supernatant was determined by sandwich ELISA. Firstly, an anti-Aβ monoclonal antibody 6E10 (Wako) diluted to 10 μg/ml with 100 mM phosphate buffer was dispensed in 50 μl/well portions into a plate for ELISA (Maxisorp, Nunc) and allowed to stand overnight at 4° C. to effect adhesion of the 6E10 antibody to the plate. The antibody was recovered on the next day, and 200 μl of Block Ace was added to each well to carry out blocking at 4° C. overnight or more. […] The Aβ for calibration curve preparation was prepared in the following manner. […] A 10 μl portion of the stock solution was transferred into a tube, HFIP was evaporated using a vacuum concentrator and then the residue was again dissolved in 10 μl of DMSO to an Aβ concentration of 1 mg/ml. Serial dilutions of the solution for Aβ calibration curve measurement were prepared within the range of from 0.2 to 10 ng/ml. The plate after the reaction with a sample or Aβ for calibration curve preparation was washed 4 times with the plate washer and then allowed to react with primary antibodies. Polyclonal antibodies R163 (Aβ1-40 specific antibody) and R165 Aβ1-42 specific antibody), which specifically recognize C-terminus of Aβ, were used as the primary antibodies. […] Each antibody was diluted 1,000 times with TBS-T containing 25% Block Ace, dispensed in 60 μl/well portions into the plate and then allowed to undergo the reaction at room temperature for 2 hours. After the reaction, the plate was washed 4 times using the plate washer and then the reaction with a secondary antibody was carried out. An HRP-labeled anti-rabbit IgG antibody was used as the secondary antibody, diluted 8,000 times with TBS-T containing 25% Block Ace and dispensed in 60 μl/well portions, and then the reaction was carried out at room temperature for 2 hours. After completion of the reaction, the plate was washed 4 times using the plate washer and then chemiluminescence by a POD chemiluminescence reagent (Boehringer Mannheim) was measured by ML3000 Plate Reader (Dynatech Laboratories).

[4] = tested on: Aβ1-42 production; experiment: Aβ1-42 production, sandwich ELISA of culture supernatant of APP695 adenovirus-infected hippocampus primary culture nerve cells; format: cell-based, rat; conditions: culture supernatant after 1 day of treatment, control DMSO (FIG. 4)
[5] = culture supernatant after 1 day of treatment, control DMSO (FIG. 3, FIG. 5)

T1 sequence (Q00535 2-292): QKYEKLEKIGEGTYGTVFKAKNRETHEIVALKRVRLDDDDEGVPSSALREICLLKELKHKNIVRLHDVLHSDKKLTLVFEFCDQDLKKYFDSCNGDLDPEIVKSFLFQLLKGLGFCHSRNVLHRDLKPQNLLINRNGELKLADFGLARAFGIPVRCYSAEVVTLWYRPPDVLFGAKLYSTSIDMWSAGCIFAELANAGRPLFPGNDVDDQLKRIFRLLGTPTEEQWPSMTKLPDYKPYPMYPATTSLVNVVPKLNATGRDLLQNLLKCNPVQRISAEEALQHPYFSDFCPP
T1 sequence (Q15078 99-307 partner limits assumed): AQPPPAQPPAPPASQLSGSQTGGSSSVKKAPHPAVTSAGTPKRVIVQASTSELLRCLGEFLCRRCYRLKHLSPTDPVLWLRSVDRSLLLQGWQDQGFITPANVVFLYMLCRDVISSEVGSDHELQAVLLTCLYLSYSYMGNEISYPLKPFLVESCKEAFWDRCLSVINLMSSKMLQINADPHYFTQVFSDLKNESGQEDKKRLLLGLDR

Molecule	Cdk5 inhibitory activity [1]	APP phosphorylation suppressing action [2]	Aβ1-40 production [3, 5]	concentration at which APP phosphorylation suppressing action was found [2] [µM]	expressed amount of total APP detected with anti-APP antibody 22C11 [2]	Aβ1-42 production [4]	Aβ1-40 production ([3]; cells on 7th day co-infected with APP695 adenovirus and Cdk5 D144N adenovirus, supernatant 2 days later, control GFP adenovirus)
CCn1cnc2c(Nc3cccc(OC)c3)nc(N[C@@H]3CCCC[C@@H]3N)nc21 [A]	verified the Cdk5 inhibitory activity	found	confirmed	–	–	–	–
O=C1Cc2c([nH]c3ccc([N+](=O)[O-])cc23)-c2ccccc2N1 [Alsterpaullone, reference compound]	verified the Cdk5 inhibitory activity	–	suppressed	10	no changes	suppressed	–
CCn1cnc2c(Nc3cccc(OC)c3)nc(NC3CCC(N)CC3)nc21 (stereo not drawn) [B]	verified the Cdk5 inhibitory activity	found	confirmed	–	–	–	–
CCn1cnc2c(Nc3cccc(OC)c3)nc(N[C@H]3CC[C@H](O)CC3)nc21 [C]	verified the Cdk5 inhibitory activity	found	confirmed	–	–	–	–
N[C@H]1CC[C@H](Nc2nc(Nc3cccc(Cl)c3)c3ncn(C4CCCC4)c3n2)CC1 [D]	verified the Cdk5 inhibitory activity	found	confirmed	–	–	–	–
CC[C@H](CO)Nc1nc(NCc2ccccc2)c2ncn(C(C)C)c2n1 [Roscovitine, reference compound]	–	–	confirmed	50	no changes	–	–
Cdk5 D144N: dominant negative mutant of Cdk5 (144th aspartic acid converted into asparagine), expressed from adenovirus vector	–	–	–	–	–	–	suppressed

Reference: patent US20030100477A1, “Medicinal compositions for suppressing beta-amyloid production” (priority 2002, published 2003)
